From patent US9212168B2 (priority 2011, dated 2015)

Columns and labels:
[1] = molecular target: HCV genotype 1b replicon; experiment: HCV genotype 1b replicon assay (Renilla luciferase readout); type: cell-based, hepatitis C virus; settings: for Genotype 1b: HCV genotype 1b replicon; for EC50: Hepatitis C virus, read-out: Genotype 1b
In short: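 Huh7-derived APC144 subgenomic replicon cells carrying Renilla luciferase–NS3-NS5B, seeded 10,000/well without G418, then treated with compound dose-responses for 48 h at 37 °C (0.5% DMSO final). Luciferase signal fitted by 4-parameter model to EC50, reported as pEC50.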

[2] = test system: HCV genotype 1a replicon; experiment: HCV genotype 1a replicon assay (NS3 protease activity readout); type: cell-based, hepatitis C virus; settings: for Genotype 1a: HCV genotype 1a replicon; for EC50: Hepatitis C virus, read-out: Genotype 1a, HCV genotype 1a replicon
In short: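 Genotype 1a subgenomic replicon cells (APC89, Huh7.5) were treated with compound dose-responses in G418-free medium, 0.5% DMSO final, for 48 or 72 hours at 37° C. Lysate NS3/4a protease activity measured with 15 μM FRET substrate, 20 min at 37° C (ex 340/em 509 nm); EC50 by 4-parameter fit.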

Compound	Genotype 1b [1]	Genotype 1a [2]	EC50 [1]	EC50 [2]
COC(=O)N[C@H](C(=O)N1C[C@@H](C)C[C@H]1c1nc(-c2ccc(-c3ccc(C(=O)Nc4ccc(N5CCN(C(=O)C(C)(C)C)C[C@H]5C)nc4)cc3OC(F)(F)F)cc2)c(F)[nH]1)C(C)C [Example 4-42]	D (D represents pEC50>10 (EC50<0.1 nM))	D (D represents pEC50>10 (EC50<0.1 nM))		
COC(=O)N[C@H](C(=O)N1C[C@@H](C)C[C@H]1c1nc(-c2ccc(-c3cc(Cl)c(C(=O)Nc4ccc(N5CCN(C(=O)C(C)(C)C)C[C@H]5C)nc4)cc3OC(F)(F)F)cc2)c[nH]1)C(C)C [Example 4-46]	D (D represents pEC50>10 (EC50<0.1 nM))	D (D represents pEC50>10 (EC50<0.1 nM))		
COC(=O)N[C@H](C(=O)N1C[C@@H](SC)C[C@H]1c1nc(-c2ccc(-c3cc(Cl)c(C(=O)Nc4ccc(N5CCN(C(=O)C(C)(C)C)C[C@H]5C)nc4)cc3OC(F)(F)F)cc2)c[nH]1)C(C)C [Example 5-3]			< 0.1 nM	< 0.1 nM
COC(=O)N[C@H](C(=O)N1C[C@@H](SC)C[C@H]1c1nc(-c2ccc(-c3cc(Cl)c(NC(=O)c4ccc(N5CCN(C(=O)[C@H]6CC6(C)C)C[C@H]5C)nc4)cc3OC(F)(F)F)cc2)c[nH]1)C(C)C [Example 5-4]			< 0.1 nM	< 0.1 nM
COC(=O)N[C@H](C(=O)N1C[C@@H](C)C[C@H]1c1nc(-c2ccc(-c3cc(F)c(NC(=O)c4ccc(N5CCN(C(=O)C(C)(C)C)C[C@H]5C)nc4)cc3Cl)cc2)c[nH]1)C(C)C [Example 5-6]			< 0.1 nM	0.1 to 1 nM
COC(=O)N[C@H](C(=O)N1C[C@@H](C)C[C@H]1c1nc(-c2ccc(-c3cc(Cl)c(NC(=O)c4ccc(N5CCN(C(=O)C(C)(C)C)C[C@H]5C)nc4)cc3OC(F)(F)F)cc2)c(F)[nH]1)C(C)C [Example 5-8]			< 0.1 nM	< 0.1 nM
CNC(=O)N1C[C@@H](C)N(c2ccc(C(=O)Nc3cc(OC(F)(F)F)c(-c4ccc(-c5c[nH]c([C@@H]6C[C@H](C)CN6C(=O)[C@@H](c6ccccc6)N6CCCCC6)n5)cc4)cc3Cl)cn2)C[C@@H]1C [Example 5-9]			< 0.1 nM	< 0.1 nM
COC(=O)N[C@H](C(=O)N1C[C@@H](OC)C[C@H]1c1nc(-c2ccc(-c3cc(Cl)c(NC(=O)c4ccc(N5CCN(C(=O)C(C)(C)C)C[C@H]5C)nc4)cc3OC(F)(F)F)cc2)c(CO)[nH]1)C(C)C [Example 5-18]			< 0.1 nM	< 0.1 nM
COC(=O)N[C@H](C(=O)N1C[C@@H](O)C[C@H]1c1nc(-c2ccc(-c3ccc(NC(=O)c4ccc(N5CCN(C(=O)[C@]6(C)CCCN6C(=O)OC)C[C@H]5C)nc4)cc3)cc2)c[nH]1)C(C)C [Example 5]			< 0.1 nM	0.1 to 1 nM
COC(=O)N[C@H](C(=O)N1C[C@@H](N(C)C)C[C@H]1c1nc(-c2ccc(-c3ccc(NC(=O)c4ccc(N5CCN(C(=O)C6CC6)C[C@H]5C)nc4)cc3)cc2)c[nH]1)C(C)C [Example 6, ((S)-1-{(2S,4S)-2-[4-(4′-{[6-((R)-4-Cyclopropanecarbonyl-2-methyl-piperazin-1-yl)-pyridine-3-carbonyl]-amino}-biphenyl-4-yl)-1H-imidazol-2-yl]-4-dimethylamino-pyrrolidine-1-carbonyl}-2-methyl-propyl)-carbamic acid methyl ester]			< 0.1 nM	0.1 to 1 nM
COC(=O)N[C@H](C(=O)N1CC2(C[C@H]1c1nc(-c3ccc(-c4ccc(C(=O)Nc5ccc(N6CCN(C(=O)C7CC7(C)C)C[C@H]6C)nc5)cc4)cc3)c[nH]1)OCCO2)C(C)C (some centres unmarked) [Example 6-1]			< 0.1 nM	0.1 to 1 nM
COC(=O)N[C@H](C(=O)N1C[C@@H](N(C)C)C[C@H]1c1nc(-c2ccc(-c3ccc(C(=O)Nc4ccc(N5CCN(C(=O)C6CC6(C)C)C[C@H]5C)nc4)cc3)cc2)c[nH]1)C(C)C (some centres unmarked) [Example 6-5]			< 0.1 nM	0.1 to 1 nM
COC(=O)N[C@H](C(=O)N1C[C@@H](SC)C[C@H]1c1nc(-c2ccc(-c3ccc(C(=O)Nc4ccc(N5CCN(C(=O)[C@]6(C)CCCN6C(=O)[C@@H](NC(=O)OC)C(C)C)C[C@H]5C)nc4)cc3OC(F)(F)F)cc2)c[nH]1)C(C)C [Example 6-9]			< 0.1 nM	< 0.1 nM
COCC(=O)N1CCC[C@@]1(C)C(=O)N1CCN(c2ccc(NC(=O)c3ccc(-c4ccc(-c5c[nH]c([C@@H]6C[C@H](SC)CN6C(=O)[C@@H](NC(=O)OC)C(C)C)n5)cc4)c(OC(F)(F)F)c3)cn2)[C@H](C)C1 [Example 6-10]			< 0.1 nM	< 0.1 nM
CNC(=O)N1CCN(c2ccc(NC(=O)c3ccc(-c4ccc(-c5c[nH]c([C@@H]6C[C@@H]7CCCC[C@@H]7N6C(=O)[C@@H](NC(=O)OC)C(C)C)n5)cc4)c(OC(F)(F)F)c3)cn2)[C@H](C)C1 [Example 6-11]			< 0.1 nM	0.1 to 1 nM
COC(=O)N[C@H](C(=O)N1[C@H](c2nc(-c3ccc(-c4ccc(C(=O)Nc5ccc(N6CCN(C(=O)C7CC7(C)C)C[C@H]6C)nc5)cc4OC(F)(F)F)cc3)c[nH]2)C[C@@H]2CCCC[C@@H]21)C(C)C (some centres unmarked) [Example 6-12]			< 0.1 nM	0.1 to 1 nM
COC(=O)N[C@H](C(=O)N1[C@@H]2C[C@@H]2C[C@H]1c1nc(-c2ccc(-c3cc(Cl)c(NC(=O)c4ccc(N5CCN(C(=O)C(C)(C)C)C[C@H]5C)nc4)cc3OC(F)(F)F)cc2)c[nH]1)C(C)C [Example 8-2]			< 0.1 nM	< 0.1 nM
COC(=O)N[C@H](C(=O)N1C[C@@H](C)C[C@H]1c1nc(-c2ccc(-c3cc(Cl)c(NC(=O)c4ccc(N5CCN(C(=O)N(C)OC)C[C@H]5C)nc4)cc3OC(F)(F)F)cc2)c[nH]1)C(C)C [Example 12-1]			< 0.1 nM	< 0.1 nM
COC(=O)N[C@H](C(=O)N1C[C@@H](C)C[C@H]1c1nc(-c2ccc(-c3cc(Cl)c(NC(=O)c4ccc(N5CCN(C(=O)C(C)(C)CO)C[C@H]5C)nc4)cc3OC(F)(F)F)cc2)c[nH]1)C(C)C [Example 12-8]			< 0.1 nM	< 0.1 nM
COC(=O)N[C@H](C(=O)N1C[C@@H](C)C[C@H]1c1nc(-c2ccc(-c3cc(Cl)c(NC(=O)c4ccc(N5CCN(C(=O)NN6CCOC6=O)C[C@H]5C)nc4)cc3OC(F)(F)F)cc2)c[nH]1)C(C)C [Example 12-17]			< 0.1 nM	< 0.1 nM
COC(=O)N[C@H](C(=O)N1C[C@@H](C)C[C@H]1c1nc(-c2ccc(-c3cc(Cl)c(NC(=O)c4ccc(N5CCN(C(=O)NC(C)(C)C)C[C@H]5C)nc4)cc3OC(F)(F)F)cc2)c[nH]1)C(C)C [Example 12-24]			< 0.1 nM	< 0.1 nM
COCC(C)(C)C(=O)N1CCN(c2ccc(C(=O)Nc3cc(OC(F)(F)F)c(-c4ccc(-c5c[nH]c([C@@H]6C[C@H](C)CN6C(=O)[C@@H](NC(=O)OC)C(C)C)n5)cc4)cc3Cl)cn2)[C@H](C)C1 [Example 12-32]			< 0.1 nM	< 0.1 nM
COC(=O)N[C@H](C(=O)N1C[C@@H](C)C[C@H]1c1nc(-c2ccc(-c3cc(Cl)c(NC(=O)c4ccc(N5CCN(C(=O)C6CC(O)C6)C[C@H]5C)nc4)cc3OC(F)(F)F)cc2)c[nH]1)C(C)C (some centres unmarked) [Example 12-47]			< 0.1 nM	< 0.1 nM
COC(=O)N[C@H](C(=O)N1C[C@@H](C)C[C@H]1c1nc(-c2ccc(-c3cc(Cl)c(NC(=O)c4ccc(N5CCN(C(=O)C67CC(CO)(C6)C7)C[C@H]5C)nc4)cc3OC(F)(F)F)cc2)c[nH]1)C(C)C [Example 12-50]			< 0.1 nM	< 0.1 nM
C[C@H]1C[C@@H](c2nc(-c3ccc(-c4cc(Cl)c(NC(=O)c5ccc(N6CCN(C(=O)C(C)(C)C)C[C@H]6C)nc5)cc4OC(F)(F)F)cc3)c[nH]2)N(C(=O)[C@@H](c2ccccc2)N2CCCCC2)C1 [Example 13-1]			< 0.1 nM	< 0.1 nM
